Target: T1, ZAP-70 (Homo sapiens, UniProt P43403)
T1 construct: endogenous in cells; host or cells: cell lysate
T1 sequence (P43403 1-619): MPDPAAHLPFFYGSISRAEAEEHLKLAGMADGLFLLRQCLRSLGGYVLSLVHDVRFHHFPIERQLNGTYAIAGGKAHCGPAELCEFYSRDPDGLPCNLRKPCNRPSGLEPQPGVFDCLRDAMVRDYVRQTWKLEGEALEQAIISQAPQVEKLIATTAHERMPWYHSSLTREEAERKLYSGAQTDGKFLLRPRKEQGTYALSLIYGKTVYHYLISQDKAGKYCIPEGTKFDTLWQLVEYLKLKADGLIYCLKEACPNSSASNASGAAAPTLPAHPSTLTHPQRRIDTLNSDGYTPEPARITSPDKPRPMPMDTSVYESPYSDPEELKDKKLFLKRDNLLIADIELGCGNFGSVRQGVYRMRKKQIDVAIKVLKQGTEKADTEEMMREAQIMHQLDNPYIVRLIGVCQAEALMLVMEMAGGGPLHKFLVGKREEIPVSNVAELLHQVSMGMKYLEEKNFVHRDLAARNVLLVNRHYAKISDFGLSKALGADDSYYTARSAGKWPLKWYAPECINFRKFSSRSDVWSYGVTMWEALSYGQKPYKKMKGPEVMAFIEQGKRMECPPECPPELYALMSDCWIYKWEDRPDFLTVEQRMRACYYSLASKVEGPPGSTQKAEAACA
Assay: ZAP-70 kinobeads assay
Format: binding
Details: cell lysate, affinity matrix with immobilized aminopyrido-pyrimidine ligand 24, dot blot detection
Protocol: The compounds of the present invention as described in the previous examples can be tested in the ZAP-70 kinobeads assay as described (EP-A 1862802 and WO-A 2007/137867). Briefly, test compounds (at various concentrations) and the affinity matrix with the immobilized aminopyrido-pyrimidine ligand 24 are added to cell lysate aliquots and allowed to bind to the proteins in the lysate sample. After the incubation time the beads with captured proteins are separated from the lysate. Bound proteins are then eluted and the presence ZAP-70 is detected and quantified using a specific antibody in a dot blot procedure and the Odyssey infrared detection system.

| Structure (SMILES) | IC50 |
| --- | --- |
| COc1ccc(Nc2nc(Nc3cc(OC)c(OC)c(OC)c3)ncc2Cl)c(N(CCNC=O)S(C)(=O)=O)c1 [Example 8] | ≤ 100 nM |
| COc1ccc(Nc2nc(Nc3cc(OC)c(OC)cc3C)ncc2Cl)c(N(CCN)S(C)(=O)=O)c1 [Example 9, N-(2-aminoethyl)-N-(2-(5-chloro-2-(4,5-dimethoxy-2-methylphenylamino)pyrimidin-4-ylamino)-5-methoxyphenyl)methanesulfonamide] | ≤ 100 nM |
| COc1ccc(Nc2nc(Nc3cc(F)c(OC)cc3OC)ncc2Cl)c(N(CCN)S(C)(=O)=O)c1 [Example 10, N-(2-aminoethyl)-N-(2-(5-chloro-2-(5-fluoro-2,4-dimethoxyphenylamino)pyrimidin-4-ylamino)-5-methoxyphenyl)methanesulfonamide] | 100 to 1000 nM |
| COc1ccc(Nc2ncc(Cl)c(Nc3ccc(OC)cc3N(CCNC=O)S(C)(=O)=O)n2)c(OC)c1 [Example 11] | 100 to 1000 nM |
| COc1cc(Nc2ncc(F)c(Nc3cccc(C)c3N(CCCC(N)=O)S(C)(=O)=O)n2)cc(OC)c1OC [Example 25, 4-(N-(2-(5-fluoro-2-(3,4,5-trimethoxyphenylamino)pyrimidin-4-ylamino)-6-methylphenyl)methylsulfonamido)butanamide] | 1000 to 10000 nM |
| COc1ccc(Nc2nc(Nc3cc(OC)c(OC)c(OC)c3)ncc2Cl)c(N(CN2CCCC2=O)S(C)(=O)=O)c1 [Example 3, N-(2-(5-chloro-2-(3,4,5-trimethoxyphenylamino)pyrimidin-4-ylamino)-5-methoxyphenyl)-N-((2-oxopyrrolidin-1-yl)methyl)methanesulfonamide] | 1000 to 10000 nM |
| COc1cc(Nc2ncc(F)c(Nc3cccc(C)c3N(CCNC(C)=O)S(C)(=O)=O)n2)cc(OC)c1OC [Example 26, N-(2-(N-(2-(5-fluoro-2-(3,4,5-trimethoxyphenylamino)pyrimidin-4-ylamino)-6-methylphenyl)methylsulfonamido)ethyl)acetamide] | 100 to 1000 nM |
| COc1ccc(Nc2nc(Nc3ccnn3C)ncc2Cl)c(N(C[C@H]2CCC(=O)N2)S(C)(=O)=O)c1 [Example 31] | 1000 to 10000 nM |
| COc1ccc(Nc2nc(Nc3cc(OC)c(OC)c(OC)c3)ncc2Cl)c(N(CCNC(C)=O)S(C)(=O)=O)c1 [Example 30] | ≤ 100 nM |
| COCCN(c1c(C)cccc1Nc1nc(Nc2cc(OC)c(OC)c(OC)c2)ncc1F)S(C)(=O)=O [Example 13] | 1000 to 10000 nM |
| COc1cc(Nc2ncc(F)c(Nc3cccc(C)c3N(CCCN)S(C)(=O)=O)n2)cc(OC)c1OC [Example 21, N-(3-aminopropyl)-N-(2-(5-fluoro-2-(3,4,5-trimethoxyphenylamino)pyrimidin-4-ylamino)-6-methylphenyl)methanesulfonamide] | 100 to 1000 nM |
| COc1ccc(Nc2nc(Nc3cc(OC)c(OC)c(OC)c3)ncc2Cl)c(N(CC#N)S(C)(=O)=O)c1 [Example 6, N-(2-(5-chloro-2-(3,4,5-trimethoxyphenylamino)pyrimidin-4-ylamino)-5-methoxyphenyl)-N-(cyanomethyl)methanesulfonamide] | ≤ 100 nM |
| COc1ccc(Nc2nc(Nc3cc(OC)c(OC)c(OC)c3)ncc2Cl)c(N(CCCNC(C)=O)S(C)(=O)=O)c1 [Example 29, N-(3-(N-(2-(5-chloro-2-(3,4,5-trimethoxyphenylamino)pyrimidin-4-ylamino)-5-methoxyphenyl)methylsulfonamido)propyl)acetamide] | ≤ 100 nM |
| COc1ccc(Nc2nc(Nc3cc(OC)c(OC)c(OC)c3)ncc2Cl)c(N(CCN)S(C)(=O)=O)c1 [Example 7, N-(2-aminoethyl)-N-(2-(5-chloro-2-(3,4,5-trimethoxyphenylamino)pyrimidin-4-ylamino)-5-methoxyphenyl)methanesulfonamide] | ≤ 100 nM |
| COc1cc(Nc2ncc(Cl)c(Nc3ccccc3N(CCNC=O)S(C)(=O)=O)n2)cc(OC)c1OC [Example 2, N-(2-(N-(2-(5-chloro-2-(3,4,5-trimethoxyphenylamino)pyrimidin-4-ylamino)phenyl)methylsulfonamido)ethyl)formamide] | ≤ 100 nM |
| COc1ccc(Nc2nc(Nc3cc(OC)c(OC)c(OC)c3)ncc2Cl)c(N(C[C@H]2CCC(=O)N2)S(C)(=O)=O)c1 [Example 5, (R)—N-(2-(5-chloro-2-(3,4,5-trimethoxyphenylamino)pyrimidin-4-ylamino)-5-methoxyphenyl)-N-((5-oxopyrrolidin-2-yl)methyl)methanesulfonamide] | 1000 to 10000 nM |
| COC(=O)CN(c1c(C)cccc1Nc1nc(Nc2cc(OC)c(OC)c(OC)c2)ncc1F)S(C)(=O)=O [Example 18, Methyl 2-(N-(2-(5-fluoro-2-(3,4,5-trimethoxyphenylamino)pyrimidin-4-ylamino)-6-methylphenyl)methylsulfonamido)acetate] | 1000 to 10000 nM |
| COc1cc(Nc2ncc(F)c(Nc3ccccc3N(CCN3CCCC3)S(C)(=O)=O)n2)cc(OC)c1OC [Example 33, N-(2-(5-fluoro-2-(3,4,5-trimethoxyphenylamino)pyrimidin-4-ylamino)phenyl)-N-(2-(pyrrolidin-1-yl)ethyl)methanesulfonamide] | 1000 to 10000 nM |
| COc1cc(Nc2ncc(F)c(Nc3cccc(C)c3N(CCCC#N)S(C)(=O)=O)n2)cc(OC)c1OC [Example 24, N-(3-cyanopropyl)-N-(2-(5-fluoro-2-(3,4,5-trimethoxyphenylamino)pyrimidin-4-ylamino)-6-methylphenyl)methanesulfonamide] | 1000 to 10000 nM |
| COc1cc(Nc2ncc(F)c(Nc3cccc(C)c3N(CCO)S(C)(=O)=O)n2)cc(OC)c1OC [Example 15, N-(2-(5-fluoro-2-(3,4,5-trimethoxyphenylamino)pyrimidin-4-ylamino)-6-methylphenyl)-N-(2-hydroxyethyl)methanesulfonamide] | 1000 to 10000 nM |
| COc1ccc(Nc2nc(Nc3cc(OC)c(OC)c(OC)c3)ncc2Cl)c(N(C[C@@H]2CCC(=O)N2)S(C)(=O)=O)c1 [Example 4, (S)—N-(2-(5-chloro-2-(3,4,5-trimethoxyphenylamino)pyrimidin-4-ylamino)-5-methoxyphenyl)-N-((5-oxopyrrolidin-2-yl)methyl)methanesulfonamide] | ≤ 100 nM |
| COc1cc(Nc2ncc(F)c(Nc3cccc(C)c3N(CC(N)=O)S(C)(=O)=O)n2)cc(OC)c1OC [Example 14, 2-(N-(2-(5-fluoro-2-(3,4,5-trimethoxyphenylamino)pyrimidin-4-ylamino)-6-methylphenyl)methylsulfonamido) acetamide] | 1000 to 10000 nM |
| COc1cc(Nc2ncc(F)c(Nc3cccc(C)c3N(CCCNC(C)=O)S(C)(=O)=O)n2)cc(OC)c1OC [Example 27, N-(3-(N-(2-(5-fluoro-2-(3,4,5-trimethoxyphenylamino)pyrimidin-4-ylamino)-6-methylphenyl)methylsulfonamido)propyl)acetamide] | 100 to 1000 nM |
| COC(=O)CCN(c1c(C)cccc1Nc1nc(Nc2cc(OC)c(OC)c(OC)c2)ncc1F)S(C)(=O)=O [Example 22, Methyl 3-(N-(2-(5-fluoro-2-(3,4,5-trimethoxyphenylamino)pyrimidin-4-ylamino)-6-methylphenyl)methylsulfonamido)propanoate] | 1000 to 10000 nM |
| COc1cc(Nc2ncc(F)c(Nc3cccc(C)c3N(CCCNC=O)S(C)(=O)=O)n2)cc(OC)c1OC [Example 28, N-(3-(N-(2-(5-fluoro-2-(3,4,5-trimethoxyphenylamino)pyrimidin-4-ylamino)-6-methylphenyl)methylsulfonamido)propyl)formamide] | 100 to 1000 nM |
| COc1cc(Nc2ncc(F)c(Nc3cccc(C)c3N(CCC#N)S(C)(=O)=O)n2)cc(OC)c1OC [Example 16, N-(2-cyanoethyl)-N-(2-(5-fluoro-2-(3,4,5-trimethoxyphenylamino)pyrimidin-4-ylamino)-6-methylphenyl)methanesulfonamide] | 100 to 1000 nM |
| COc1cc(Nc2ncc(F)c(Nc3cccc(C)c3N(CCN)S(C)(=O)=O)n2)cc(OC)c1OC [Example 19, N-(2-aminoethyl)-N-(2-(5-fluoro-2-(3,4,5-trimethoxyphenylamino)pyrimidin-4-ylamino)-6-methylphenyl)methanesulfonamide] | 100 to 1000 nM |
| COc1cc(Nc2ncc(F)c(Nc3cccc(C)c3N(CCC(N)=O)S(C)(=O)=O)n2)cc(OC)c1OC [Example 23, 3-(N-(2-(5-fluoro-2-(3,4,5-trimethoxyphenylamino)pyrimidin-4-ylamino)-6-methylphenyl)methylsulfonamido)propanamide] | 1000 to 10000 nM |
| COc1ccc(Nc2nc(Nc3cc(OC)c(OC)c(OC)c3)ncc2Cl)c(N(Cc2cnc[nH]2)S(C)(=O)=O)c1 [Example 1, N-((1H-imidazol-5-yl)methyl)-N-(2-(5-chloro-2-(3,4,5-trimethoxyphenylamino)pyrimidin-4-ylamino)-5-methoxyphenyl)methanesulfonamide] | 100 to 1000 nM |
| COc1ccc(Nc2nc(Nc3cc(OC)c(OC)c(OC)c3)ncc2Cl)c(N(CCCNC=O)S(C)(=O)=O)c1 [Example 12, N-(3-(N-(2-(5-chloro-2-(3,4,5-trimethoxyphenylamino)pyrimidin-4-ylamino)-5-methoxyphenyl)methylsulfonamido)propyl)formamide] | ≤ 100 nM |

— US20120165332A1, “SULFONAMIDES AND SULFAMIDES AS ZAP-70 INHIBITORS” (Cellzome Limited, priority 2009, published 2012)
